Data set [1] concerns the target Beta-secretase 1 (Mus musculus) (UniProt P56818). Kind of data set: Inhibition of BACE1 in mouse N2A cells expressing human APP695 assessed as reduction in amyloid beta40 level at 10 uM after 10 hrs by sandwich ELISA. Format: cell-based.
In data set [2] the test system is N2a. Kind of data set: Effect on full length APP level in mouse N2A cells expressing human APP695 at 8 uM after 10 hrs by Western blot analysis. In kind it is functional, cell-based.
The test system of data set [3] is N2a. Kind of data set: Effect on BACE1 level in mouse N2A cells expressing human APP695 at 8 uM after 10 hrs by Western blot analysis. In kind it is functional, cell-based.
Data set [4] has as its system N2a. Kind of data set: Inhibition of gamma-secretase in mouse N2A cells transfected with NotchdeltaE assessed as reduction in Notch intracellular domain level at 8 uM after 10 hrs by densitometry analysis. In kind it is cell-based.
Data set [5] concerns the target Disintegrin and metalloproteinase domain-containing protein 17 (Homo sapiens) (UniProt P78536). Kind of data set: Activation of TACE in human SH-SY5Y cells at 8 uM after 10 hrs by fluorescence assay. Format: cell-based.
The test system of data set [6] is N2a. Kind of data set: Downregulation of N-terminal fragment of presenilin1 level in mouse N2A cells at 8 uM after 10 hrs by Western blot analysis. In kind it is functional, cell-based.
Data set [7] concerns the target Beta-secretase 1 (Mus musculus) (UniProt P56818). Kind of data set: Inhibition of BACE1 in mouse N2A cells expressing human APP695 assessed as decrease in soluble APP beta protein level at 8 uM after 10 hrs by Western blot analysis. Format: cell-based.
The target is the same in data set [8]. Briefly: Inhibition of BACE1 in mouse N2A cells at 8 uM after 10 hrs by fluorescence plate reader analysis. Format: cell-based.
Data set [9] concerns N2a. Kind of data set: Cytotoxicity against mouse N2A cells expressing human APP695 assessed as reduction in cell viability at 8 to 100 uM after 10 hrs by CCK-8 assay. Format: cell-based.
Data set [10] has as its system N2a. Briefly: Effect on ADAM17 level in mouse N2A cells expressing human APP695 at 8 uM after 10 hrs by Western blot analysis. Format: functional, cell-based.
Data set [11] concerns the target Beta-secretase 1 (Mus musculus) (UniProt P56818). Briefly: Inhibition of BACE1 in mouse N2A cells expressing human APP695 assessed as reduction in amyloid beta40 level after 10 hrs by sandwich ELISA. In kind it is cell-based.
Data set [12] deals with N2a. Kind of data set: Upregulation of soluble APP alpha protein level in mouse N2A cells expressing human APP695 at 8 uM after 10 hrs by Western blot analysis. Format: functional, cell-based.
In data set [13] the test system is N2a. Briefly: Effect on immature ADAM10 level in mouse N2A cells expressing human APP695 at 8 uM after 10 hrs by Western blot analysis. Format: functional, cell-based.
In data set [14] the target is Beta-secretase 1 (Homo sapiens) (UniProt P56817). Briefly: Inhibition of BACE1 in human SH-SY5Y cells at 8 uM after 10 hrs by fluorescence plate reader analysis. Format: cell-based.
Chain of Beta-secretase 1 (Homo sapiens) (P56817 whole entry): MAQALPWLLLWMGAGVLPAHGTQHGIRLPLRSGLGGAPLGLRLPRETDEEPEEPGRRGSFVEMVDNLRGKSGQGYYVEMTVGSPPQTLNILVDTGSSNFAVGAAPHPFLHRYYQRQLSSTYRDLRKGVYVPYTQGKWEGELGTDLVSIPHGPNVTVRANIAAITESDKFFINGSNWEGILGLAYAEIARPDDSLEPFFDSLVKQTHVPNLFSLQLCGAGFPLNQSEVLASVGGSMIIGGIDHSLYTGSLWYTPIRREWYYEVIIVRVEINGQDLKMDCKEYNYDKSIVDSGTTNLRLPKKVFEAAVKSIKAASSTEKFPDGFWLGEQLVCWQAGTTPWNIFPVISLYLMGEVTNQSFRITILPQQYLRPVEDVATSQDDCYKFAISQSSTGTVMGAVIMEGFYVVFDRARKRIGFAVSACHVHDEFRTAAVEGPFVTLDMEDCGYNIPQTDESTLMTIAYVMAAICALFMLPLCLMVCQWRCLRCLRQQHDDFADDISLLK
For data set [15], the system named is N2a. Kind of data set: Cytotoxicity against mouse N2A cells expressing human APP695 assessed as reduction in cell viability up to 8 uM after 10 hrs by CCK-8 assay. In kind it is cell-based.
Data set [16] deals with N2a. Kind of data set: Effect on mature ADAM10 level in mouse N2A cells expressing human APP695 at 8 uM after 10 hrs by Western blot analysis. Format: functional, cell-based.
Data set [17] addresses Beta-secretase 1 (Mus musculus) (UniProt P56818). Briefly: Inhibition of BACE1 in mouse N2A cells expressing human APP695 assessed as reduction in amyloid beta42 level after 10 hrs by sandwich ELISA. Format: cell-based.
Data set [18] relates to N2a. Kind of data set: Upregulation of soluble APP alpha protein level in mouse N2A cells expressing human APP695 at 10 uM after 10 hrs by Western blot analysis. Format: functional, cell-based.
In data set [19] the test system is N2a. Briefly: Decrease in amyloid beta40 level in mouse N2A cells expressing human APP695 at 10 uM after 10 hrs by sandwich ELISA. Format: functional, cell-based.
Data set [20] deals with N2a. Briefly: Decrease in amyloid beta40 level in mouse N2A cells expressing human APP695 after 10 hrs by sandwich ELISA. In kind it is functional, cell-based.
In data set [21] the test system is N2a. Briefly: Decrease in amyloid beta42 level in mouse N2A cells expressing human APP695 after 10 hrs by sandwich ELISA. Format: functional, cell-based.
For data set [22], the system named is N2a. Briefly: Cytotoxicity against mouse N2A cells expressing human APP695 assessed as reduction in cell viability at 16 to 100 uM after 10 hrs by CCK-8 assay. Format: cell-based.
The subject of data set [23] is N2a. Briefly: Cytotoxicity against mouse N2A cells expressing human APP695 assessed as reduction in cell viability up to 16 uM after 10 hrs by CCK-8 assay. Format: cell-based.

The structures appear in SMILES notation. Activity calls are given as the source filed them. The calls are words filed in the database; no cut-off is given here.

Chain of Disintegrin and metalloproteinase domain-containing protein 17 (Homo sapiens) (P78536 whole entry, the tested form may be a part): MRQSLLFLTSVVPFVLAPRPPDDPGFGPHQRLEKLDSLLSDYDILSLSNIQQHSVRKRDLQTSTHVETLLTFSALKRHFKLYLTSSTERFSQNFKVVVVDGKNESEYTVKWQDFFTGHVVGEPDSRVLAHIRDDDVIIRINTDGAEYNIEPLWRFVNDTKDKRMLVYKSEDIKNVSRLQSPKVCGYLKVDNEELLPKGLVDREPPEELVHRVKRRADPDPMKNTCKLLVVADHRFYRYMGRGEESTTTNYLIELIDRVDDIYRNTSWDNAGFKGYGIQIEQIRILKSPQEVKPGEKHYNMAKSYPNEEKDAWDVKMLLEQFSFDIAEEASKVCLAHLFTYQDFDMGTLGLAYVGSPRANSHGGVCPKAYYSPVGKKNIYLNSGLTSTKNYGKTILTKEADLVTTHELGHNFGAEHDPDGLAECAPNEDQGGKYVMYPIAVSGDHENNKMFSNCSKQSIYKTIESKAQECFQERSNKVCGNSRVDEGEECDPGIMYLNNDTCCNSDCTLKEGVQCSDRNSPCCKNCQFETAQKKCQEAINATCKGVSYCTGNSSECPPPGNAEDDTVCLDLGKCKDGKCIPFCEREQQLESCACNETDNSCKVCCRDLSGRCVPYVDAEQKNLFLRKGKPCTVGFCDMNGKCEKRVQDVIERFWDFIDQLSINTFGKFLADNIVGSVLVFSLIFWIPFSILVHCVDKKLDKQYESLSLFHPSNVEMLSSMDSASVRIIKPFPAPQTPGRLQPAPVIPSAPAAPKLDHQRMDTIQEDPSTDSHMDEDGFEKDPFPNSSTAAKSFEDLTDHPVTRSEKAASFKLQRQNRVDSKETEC
Chain of Beta-secretase 1 (Mus musculus) (P56818 whole entry): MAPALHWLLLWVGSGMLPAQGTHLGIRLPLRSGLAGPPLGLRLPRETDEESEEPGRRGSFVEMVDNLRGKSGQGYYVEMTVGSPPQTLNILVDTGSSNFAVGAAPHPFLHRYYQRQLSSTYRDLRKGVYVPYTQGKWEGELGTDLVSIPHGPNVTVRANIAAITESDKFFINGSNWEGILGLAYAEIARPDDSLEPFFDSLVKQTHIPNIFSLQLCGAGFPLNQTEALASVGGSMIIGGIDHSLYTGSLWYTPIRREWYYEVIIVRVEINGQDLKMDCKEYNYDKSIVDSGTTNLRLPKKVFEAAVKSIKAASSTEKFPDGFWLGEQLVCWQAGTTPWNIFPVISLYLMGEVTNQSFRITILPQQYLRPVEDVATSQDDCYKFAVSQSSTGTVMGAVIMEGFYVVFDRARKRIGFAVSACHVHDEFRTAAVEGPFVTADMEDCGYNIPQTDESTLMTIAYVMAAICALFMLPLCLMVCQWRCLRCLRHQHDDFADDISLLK

For `Oc1ccc([C@@H]2c3c(O)cc4c5c3[C@@H]([C@@H](c3ccc(O)cc3)c3c(O)cc(O)cc3[C@@H]5[C@@H](c3ccc(O)cc3)O4)[C@H]2c2cc(O)cc(O)c2)cc1` [AMPELOPSIN C], the inhibition entry in [1], in data set [7], in data set [8] and in [14] was “Active” throughout. Also, the outcome in data set [2], in data set [3], in data set [5], in data set [6], in [10] and in data set [13] was inactive. For the same compound, the result in data set [16] was inactive. Also, the inhibition result in data set [4] is “inactive”. Also, the Activity result is on record as “Dose-dependent effect” in data set [9] and “Non-toxic” in data set [15]. The inhibition entry in data set [11] and in data set [17] was “Dose-dependent effect” throughout. The result in [12] was Active.

For the compound `C[C@@H](NC(=O)c1cc(C(=O)N[C@@H](Cc2ccccc2)[C@H](O)CNC2CC2)cc(N(C)S(C)(=O)=O)c1)c1ccccc1`, the outcome in [18] was Active.

As to `Oc1ccc([C@H]2c3c(O)cc(O)cc3[C@H]3c4c(cc(O)cc4[C@H]4[C@H](c5ccc(O)cc5)c5cc(O)cc(O)c5[C@H]24)O[C@@H]3c2ccc(O)cc2)cc1`, the outcome in data set [2], in data set [3], in data set [6], in data set [10], in data set [13] and in data set [16] was inactive. Besides, the outcome in [19], in data set [5] and in data set [12] was Active. Also, the inhibition entry in data set [4], in data set [7] and in [8] was “inactive” in each case. For the same compound, the Activity result was “Dose-dependent effect” in [20], “Dose-dependent effect” in data set [21], “Dose-dependent effect” in data set [9] and “Non-toxic” in [15]. Besides, the inhibition result in data set [14] is “Active”.

Take `Oc1ccc([C@@H]2c3c(O)cc(O)cc3[C@@H]3c4c(cc(O)c5c4[C@H]2[C@@H](c2cc(O)cc(O)c2)[C@@H]5c2ccc(O)cc2)O[C@H]3c2ccc(O)cc2)cc1`: the outcome in data set [2], in data set [3], in data set [5], in [6], in data set [10] and in data set [13] was inactive. In [16], the result was inactive. In addition, the Activity result in [22] is “Dose-dependent effect”; in data set [20], “Dose-dependent effect”; in data set [21] it was “Dose-dependent effect”; in data set [23] it was “Non-toxic”. The outcome in data set [19] and in data set [12] was Active. Also, the inhibition entry in data set [4] and in data set [7] was “inactive” in each case. The inhibition result in data set [8] and in data set [14] was “Active” in each case.

(Values after ChEMBL document CHEMBL3745623, “Polyphenols isolated from leaves of Vitis thunbergii var. taiwaniana regulate APP related pathway” (Bioorg Med Chem Lett, 2016).)
